# Measured values reported in patent US8557791B2, “Anti-tumor agent comprising cytidine derivative and carboplatin” (Taiho Pharmaceutical Co., Ltd., priority 2008, dated 2013).
# What was measured:
# [1] = test system: human lung cancer strain LX-1; test: Antitumor effect in nude mice with subcutaneously transplanted human lung cancer strain LX-1; assay type: in vivo, mouse; conditions: day 15, LX-1 s.c., i.v. days 1 and 8, ECyd 2 mg/kg, carboplatin 70 mg/kg; for RTV Mean ± SD (Relative Tumor Volume): male nude mice (BALB/cA jcl-nu); for IR (Inhibition Rate of tumor proliferation with respect to control): male nude mice
# Procedure: A fragment (about 2×2 mm) of human lung cancer strain LX-1 was subcutaneously transplanted in the back of each of male nude mice (BALB/cA jcl-nu). When the average tumor volume (longer diameter (mm)×shorter diameter (mm)×shorter diameter (mm)×½) of these mice reached about 200 mm^3, the mice were divided into groups based on the tumor volume (8 mice in each group) (day 0).
# Drug administration was started on the day following transplant (day 1). ECyd and carboplatin were administered to a mouse through the caudal vein at a dose of 2 mg/kg and 70 mg/kg, respectively, on days 1 and 8. Mice of a control group were not subjected to drug treatment.
# On day 15, the ratio of tumor volume to that at the grouping (Relative Tumor Volume; RTV) was calculated. In addition, percent inhibition of tumor proliferation of a group with respect to the control group (Inhibition Rate (%); IR (%)) was calculated by equation 2.
# From the tumor volume on day 15, enhancement in antitumor effect of the combined administration group with respect to the ECyd-only administration group and the carboplatin-only administration group was analyzed through the Student's t-test (both sides). The antitumor effect of the combined administration group with respect to either single administration group had significance value (p value) of less than 0.05, confirming that administration of ECyd and carboplatin in combination is statistically significant. IR (%)=[1−average tumor volume of treated group/average tumor volume of control group]×100 (Equation 2)
# [2] = test system: human head and neck cancer strain OCC-1; test: Survival of nude rats with subcutaneously transplanted human head and neck cancer strain OCC-1; assay type: in vivo, rat; conditions: carboplatin 40 mg/kg/day vs cisplatin 5 mg/kg/day as employed in the test
# Procedure: Male nude rats (F344/N Jcl-rnu) were divided in terms of body weight into groups (14 rats in each group). To each rat, a fragment (about 2×2 mm) of human head and neck cancer strain OCC-1 was subcutaneously transplanted into the back (day 0). Drug administration was started on the day following transplant (day 1). ECyd was administered to a rat through the caudal vein at a dose of 0.3 mg/kg on days 1, 3, 5, 8, 10, and 12. Carboplatin was administered to a rat through the caudal vein at a dose of 30 mg/kg or 40 mg/kg on days 1 and 8. Cisplatin was administered to a rat through the caudal vein at a dose of 5 mg/kg on day 1. […] Rats of a control group were not subjected to drug treatment.
# Thereafter, the survival (days) of each rat was checked, and the survival rate of each group was calculated by the following equation 1. FIGS. 1 to 3 are graphs showing survival rates; in each graph the horizontal axis represents days and the vertical axis represents survival rate. Survival rate (%)=(no. of surviving rats/no. of rats tested)×100 (Equation 1)
SMILES,RTV Mean ± SD (Relative Tumor Volume) [1],IR (Inhibition Rate of tumor proliferation with respect to control) [1],antitumor effect of the platinum agents compared with each other [2]
"C#C[C@@]1(O)[C@@H](CO)O[C@@H](n2ccc(N)nc2=O)[C@@H]1O [ECyd, 1-(3-C-Ethynyl-β-D-ribopentofuranosyl)cytosine]",5.43 ± 1.51,43.8%,–
"N.N.O=C([O-])C1(C(=O)[O-])CCC1.[Pt+2] [carboplatin, cis-diammine(1,1-cyclobutanedicarboxylato)platinum(II)]",5.53 ± 1.75,42.8%,almost the same antitumor effect
N.N.[Cl][Pt][Cl] [cisplatin],–,–,almost the same antitumor effect
